Measurements published in ChEMBL document CHEMBL5537115, “New broad-spectrum and potent antibacterial agents with dual-targeting mechanism: Promoting FtsZ polymerization and disrupting bacterial membranes” (Eur J Med Chem, 2024).
Calls of active or inactive are those of the source. The rule behind the calls is not given here.

Columns and labels:
Streptococcus pyogenes [1] = assay: Antibacterial activity against erythromycin-resistant Streptococcus pyogenes 2 clinical isolate assessed as bacterial growth inhibition incubated for 20 hrs by CLSI based broth microdilution method; assay type: functional
[2] = system: Staphylococcus epidermidis; assay: Antibacterial activity against penicillin-resistant Staphylococcus epidermidis clinical isolate assessed as bacterial growth inhibition incubated for 20 hrs by CLSI based broth microdilution method; assay type: functional
Staphylococcus aureus [3] = assay: Antibacterial activity against Staphylococcus aureus clinical isolate assessed as bacterial growth inhibition incubated for 20 hrs by CLSI based broth microdilution method; assay type: functional
Staphylococcus aureus [4] = assay: Antibacterial activity against penicillin-resistant Staphylococcus aureus ATCC31007 assessed as bacterial growth inhibition incubated for 20 hrs by CLSI based broth microdilution method; assay type: functional
Staphylococcus aureus [5] = assay: Antibacterial activity against methicillin-resistant Staphylococcus aureus ATCC43300 assessed as bacterial growth inhibition incubated for 20 hrs by CLSI based broth microdilution method; assay type: functional
Klebsiella pneumoniae = assay: Antibacterial activity against Klebsiella pneumoniae ATCC BAA-1902 assessed as bacterial growth inhibition incubated for 20 hrs by CLSI based broth microdilution method; assay type: functional
Acinetobacter baumannii [6] = assay: Antibacterial activity against Acinetobacter baumannii ATCC19606 assessed as bacterial growth inhibition incubated for 20 hrs by CLSI based broth microdilution method; assay type: functional
Escherichia coli [7] = assay: Antibacterial activity against wild-type Escherichia coli BW25113 assessed as bacterial growth inhibition incubated for 20 hrs by CLSI based broth microdilution method; assay type: functional
Escherichia coli [8] = assay: Antibacterial activity against penicillin-susceptible Escherichia coli ATCC25922 assessed as bacterial growth inhibition incubated for 20 hrs by CLSI based broth microdilution method; assay type: functional
Enterococcus faecium [9] = assay: Antibacterial activity against vancomycin-susceptible Enterococcus faecium ATCC19434 assessed as bacterial growth inhibition incubated for 20 hrs by CLSI based broth microdilution method; assay type: functional
Enterococcus faecalis [10] = assay: Antibacterial activity against vancomycin-susceptible Enterococcus faecalis ATCC29212 assessed as bacterial growth inhibition incubated for 20 hrs by CLSI based broth microdilution method; assay type: functional
Streptococcus pyogenes [11] = assay: Antibacterial activity against erythromycin-susceptible Streptococcus pyogenes 1 assessed as bacterial growth inhibition incubated for 20 hrs by CLSI based broth microdilution method; assay type: functional
Staphylococcus aureus [12] = assay: Antibacterial activity against erythromycin-susceptible Staphylococcus aureus ATCC25923 assessed as bacterial growth inhibition incubated for 20 hrs by CLSI based broth microdilution method; assay type: functional
Bacillus pumilus = assay: Antibacterial activity against penicillin-susceptible Bacillus pumilus CMCC63202 assessed as bacterial growth inhibition incubated for 20 hrs by CLSI based broth microdilution method; assay type: functional
Bacillus subtilis [13] = assay: Antibacterial activity against penicillin-susceptible Bacillus subtilis ATCC9372 assessed as bacterial growth inhibition incubated for 20 hrs by CLSI based broth microdilution method; assay type: functional
Enterococcus faecalis [14] = assay: Antibacterial activity against vancomycin-resistant Enterococcus faecalis ATCC51299 assessed as bacterial growth inhibition incubated for 20 hrs by CLSI based broth microdilution method; assay type: functional
Enterococcus faecium [15] = assay: Antibacterial activity against vancomycin-resistant Enterococcus faecium ATCC51559 assessed as bacterial growth inhibition incubated for 20 hrs by CLSI based broth microdilution method; assay type: functional
Staphylococcus aureus [16] = assay: Effect on proton gradient of cytoplasmic membrane in Staphylococcus aureus ATCC25923 at 1 ug/ml measured after 20 mins by diSC35 dye based analysis; assay type: functional, organism-based; conditions: Cytoplasm membrane, dose 1.0 µg/ml
Staphylococcus aureus [17] = assay: Disruption of inner membrane in Staphylococcus aureus ATCC25923 at 0.5 ug/ml measured after 12 mins by PI staining based analysis; assay type: functional, organism-based; conditions: dose 0.5 µg/ml
Escherichia coli [18] = assay: Disruption of outer membrane in Escherichia coli ATCC25922 at 16 ug/ml measured after 10 mins by NPN dye based analysis; assay type: functional, organism-based; conditions: dose 16.0 µg/ml
Acinetobacter baumannii [19] = assay: Selectivity ratio of MBC for Acinetobacter baumannii ATCC19606 to MIC for Acinetobacter baumannii ATCC19606; assay type: functional
Acinetobacter baumannii [20] = assay: Antibacterial activity against Acinetobacter baumannii ATCC19606 incubated for 18 to 24 hrs; assay type: functional; conditions: time 18-24 hrs
Staphylococcus aureus [21] = assay: Selectivity ratio of MBC for Staphylococcus aureus clinical isolate to MIC for Staphylococcus aureus clinical isolate; assay type: functional
Staphylococcus aureus [22] = assay: Antibacterial activity against Staphylococcus aureus clinical isolate incubated for 18 to 24 hrs; assay type: functional; conditions: time 18-24 hrs
Staphylococcus aureus [23] = assay: Selectivity ratio of MBC for methicillin-resistant Staphylococcus aureus ATCC43300 to MIC for methicillin-resistant Staphylococcus aureus ATCC43300; assay type: functional
Bacillus subtilis [24] = assay: Selectivity ratio of MBC for penicillin-susceptible Bacillus subtilis ATCC9372 to MIC for penicillin-susceptible Bacillus subtilis ATCC9372; assay type: functional
Bacillus subtilis [25] = assay: Antibacterial activity against penicillin-susceptible Bacillus subtilis ATCC9372 incubated for 18 to 24 hrs; assay type: functional; conditions: time 18-24 hrs
Staphylococcus aureus [26] = assay: Antibacterial activity against methicillin-resistant Staphylococcus aureus ATCC43300 incubated for 18 to 20 hrs; assay type: functional; conditions: time 18-20 hrs
Staphylococcus aureus [27] = assay: Selectivity ratio of MBC for erythromycin-susceptible Staphylococcus aureus ATCC25923 to MIC for erythromycin-susceptible Staphylococcus aureus ATCC25923; assay type: functional
Staphylococcus aureus [28] = assay: Antibacterial activity against erythromycin-susceptible Staphylococcus aureus ATCC25923 incubated for 18 to 24 hrs; assay type: functional; conditions: time 18-24 hrs
Staphylococcus aureus [29] = assay: Induction of resistance development in Staphylococcus aureus ATCC25923 assessed as fold increase in MIC at 0.5 times MIC measured after 32 days by multi-passage resistance assay relative to control; assay type: functional; conditions: time 32.0 day
Staphylococcus aureus [30] = assay: Inhibition of biofilm formation of Staphylococcus aureus ATCC25923 incubated for 20 hrs by crystal violet staining based analysis; assay type: functional, organism-based
Staphylococcus aureus [31] = assay: Inhibition of biofilm formation of Staphylococcus aureus ATCC25923 at 0.5 ug/ml incubated for 20 hrs by crystal violet staining based analysis relative to control; assay type: functional
Bacillus subtilis [32] = assay: Induction of morphological change in Bacillus subtilis ATCC9372 assessed as increase in cell length at 0.5 times MIC by phase contrast microscopy; assay type: functional, organism-based
[33] = target: T1, Cell division protein FtsZ (Bacillus subtilis) (UniProt A5Z1V5); assay: Induction of FtsZ polymerization in Bacillus subtilis at 2.5 to 10 ug/ml preincubated with compound followed by GTP addition by absorbance based assay; conditions: dose 2.5-10 µg/ml, time 40.0 min, TDE = time-dependent effect
T1 sequence (whole entry): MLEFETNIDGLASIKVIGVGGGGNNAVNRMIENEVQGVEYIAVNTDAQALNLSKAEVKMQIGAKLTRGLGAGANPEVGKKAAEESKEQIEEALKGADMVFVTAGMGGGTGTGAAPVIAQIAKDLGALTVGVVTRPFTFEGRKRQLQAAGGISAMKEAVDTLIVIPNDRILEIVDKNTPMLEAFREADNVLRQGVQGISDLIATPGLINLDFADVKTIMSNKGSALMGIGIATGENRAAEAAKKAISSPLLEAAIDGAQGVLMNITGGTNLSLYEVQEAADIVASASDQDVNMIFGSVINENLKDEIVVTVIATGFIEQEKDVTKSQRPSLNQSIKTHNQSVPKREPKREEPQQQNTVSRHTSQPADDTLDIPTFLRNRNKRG

[34] = target: T1, Cell division protein FtsZ (Bacillus subtilis); assay: Induction of FtsZ polymerization in Bacillus subtilis preincubated for 10 mins followed by GTP addition measured upto 30 mins by absorbance based assay; conditions: dose 2.5-10 µg/ml, time 40.0 min
[35] = target: T1, Cell division protein FtsZ (Bacillus subtilis); assay: Induction of FtsZ polymerization in Bacillus subtilis assessed as bundling of FtsZ protofilaments at 10 ug/ml preincubated for 15 mins followed by GTP addition measured after 10 mins by TEM analysis; conditions: dose 10.0 µg/ml, time 25.0 min
Staphylococcus aureus [36] = assay: Induction of membrane potential depolarization in Staphylococcus aureus ATCC25923 measured after 20 mins by diSC35 dye based spectroscopy; assay type: functional, organism-based
Staphylococcus aureus [37] = assay: Disruption of inner membrane in Staphylococcus aureus ATCC25923 measured after 12 mins by PI staining based analysis; assay type: functional, organism-based
Staphylococcus aureus [38] = assay: Disruption of inner membrane in Staphylococcus aureus ATCC25923 by PI staining based analysis; assay type: functional, organism-based; conditions: time 12.0 min, TDE = time-dependent effect
Staphylococcus aureus [39] = assay: Induction of morphological change in Staphylococcus aureus ATCC25923 assessed as loss of bacterial membrane integrity at 16 times MIC incubated for 2 hrs by TEM analysis; assay type: functional, organism-based
Staphylococcus aureus [40] = assay: Induction of morphological change in Staphylococcus aureus ATCC25923 assessed as leakage of cell contents at 16 times MIC incubated for 2 hrs by TEM analysis; assay type: functional, organism-based
[41] = Hemolytic activity in mouse erythrocytes at 16 ug/ml incubated for 1 hr by absorbance based assay; assay type: toxicity, cell-based, Erythrocyte; conditions: at 16 µg/mL, read-out: Activity
[42] = Hemolytic activity in mouse erythrocytes at 32 ug/ml incubated for 1 hr by absorbance based assay; assay type: toxicity, cell-based, Erythrocyte; conditions: at 32 µg/mL, read-out: Activity

Structure (SMILES): C[n+]1cc(-c2ccccc2)c(/C=C/c2ccc(C(C)(C)C)cc2)cc1-c1ccccc1.[I-]
- MIC (Streptococcus pyogenes [1]): 2 µg/mL
- MIC [2]: 2 µg/mL
- MIC (Staphylococcus aureus [3]): 0.5 µg/mL
- MIC (Staphylococcus aureus [4]): 4 µg/mL
- MIC (Staphylococcus aureus [5]): 0.5 µg/mL
- MIC (Klebsiella pneumoniae): 32 µg/mL
- MIC (Acinetobacter baumannii [6]): 4 µg/mL
- MIC (Escherichia coli [7]): 8 µg/mL
- MIC (Escherichia coli [8]): 8 µg/mL
- MIC (Enterococcus faecium [9]): 4 µg/mL
- MIC (Enterococcus faecalis [10]): 4 µg/mL
- MIC (Streptococcus pyogenes [11]): 2 µg/mL
- MIC (Staphylococcus aureus [12]): 0.25 µg/mL
- MIC (Bacillus pumilus): 2 µg/mL
- MIC (Bacillus subtilis [13]): 0.5 µg/mL
- MIC (Enterococcus faecalis [14]): 4 µg/mL
- MIC (Enterococcus faecium [15]): 2 µg/mL
- Activity (Staphylococcus aureus [16]): inactive
- Activity (Staphylococcus aureus [17]): Active
- Activity (Escherichia coli [18]): Active

Structure (SMILES): C[n+]1cc(-c2ccccc2)c(/C=C/c2ccc(N3CCCC3)cc2)cc1-c1ccc(C(C)(C)C)cc1.[I-]
- Ratio (Acinetobacter baumannii [19]): 2
- MBC (Acinetobacter baumannii [20]): 2 µg/mL
- Ratio (Staphylococcus aureus [21]): 1
- MBC (Staphylococcus aureus [22]): 0.5 µg/mL
- Ratio (Staphylococcus aureus [23]): 2
- Ratio (Bacillus subtilis [24]): 1
- MBC (Bacillus subtilis [25]): 0.5 µg/mL
- MBC (Staphylococcus aureus [26]): 1 µg/mL
- Ratio (Staphylococcus aureus [27]): 8
- MBC (Staphylococcus aureus [28]): 1 µg/mL
- MIC (Streptococcus pyogenes [1]): 1 µg/mL
- MIC [2]: 1 µg/mL
- MIC (Staphylococcus aureus [3]): 0.5 µg/mL
- MIC (Staphylococcus aureus [4]): 0.25 µg/mL
- MIC (Staphylococcus aureus [5]): 0.5 µg/mL
- MIC (Klebsiella pneumoniae): 16 µg/mL
- MIC (Acinetobacter baumannii [6]): 1 µg/mL
- MIC (Escherichia coli [7]): 8 µg/mL
- MIC (Escherichia coli [8]): 8 µg/mL
- MIC (Enterococcus faecium [9]): 2 µg/mL
- MIC (Enterococcus faecalis [10]): 0.5 µg/mL
- MIC (Streptococcus pyogenes [11]): 0.5 µg/mL
- MIC (Staphylococcus aureus [12]): 0.062 µg/mL
- MIC (Bacillus pumilus): 0.062 µg/mL
- MIC (Bacillus subtilis [13]): 0.5 µg/mL
- MIC (Enterococcus faecalis [14]): 2 µg/mL
- MIC (Enterococcus faecium [15]): 2 µg/mL
- fold change (FC) (Staphylococcus aureus [29]): 2
- inhibition (Staphylococcus aureus [30]): Dose-Dependent Effect
- inhibition at 0.5 µg/mL (Staphylococcus aureus [31]): 59.1%
- Activity (Bacillus subtilis [32]): Active
- Activity [33]: Tde
- Activity [34]: Dose-Dependent Effect
- Activity [35]: Active
- Activity (Staphylococcus aureus [36]): Dose-Dependent Effect
- Activity (Staphylococcus aureus [37]): Dose-Dependent Effect
- Activity (Staphylococcus aureus [38]): Tde
- Activity (Staphylococcus aureus [39]): Active
- Activity (Staphylococcus aureus [40]): Active
- hemolysis at 1 h, 16 ug/ml [41]: 4.65%
- hemolysis at 1 h, 32 ug/ml [42]: 13.7%
